Results taken from patent US20240238242A1, “EGCG buccal tablet and use thereof” (priority 2023, published 2024).
Like-named read-outs stand apart in the source and are kept apart here.

Tests used:
[1] = tested on: Novel enterovirus D68 (EV-D68); assay type: cell-based; settings: for CPE test (virus replication in cell wells) / CPE test (virus replication in the cell wells): wells 1-10; for average inactivation efficiency against virus / inactivation efficiency against the virus: EV-D68 virus; for average inactivation efficiency against virus: three experiments; for CPE test per cell well: first experiment; for inactivation efficiency against the virus: single experiment
SARS-CoV-2 Omicron BA.2 = tested on: SARS-CoV-2 Omicron BA.2; set-up: species or system BALB/c mice; settings: mouse, in vivo

O=C(O[C@@H]1Cc2c(O)cc(O)cc2O[C@@H]1c1cc(O)c(O)c(O)c1)c1cc(O)c(O)c(O)c1 [EGCG, Epigallocatechin gallate]
CPE test (virus replication in cell wells) ([1]; 1 mM EGCG + virus, 1 minute, dilution factor 10^5, second experiment): +
CPE test (virus replication in cell wells) ([1]; 1 mM EGCG + virus, 1 minute, dilution factor 10^5, third experiment): +
CPE test (virus replication in cell wells) ([1]; 1 mM EGCG + virus, 1 minute, dilution factor 10^6, second experiment): + and −
CPE test (virus replication in cell wells) ([1]; 1 mM EGCG + virus, 1 minute, dilution factor 10^6, third experiment): + and −
CPE test (virus replication in cell wells) ([1]; 1 mM EGCG + virus, 1 minute, dilution factor 10^7, second experiment): − and +
CPE test (virus replication in cell wells) ([1]; 1 mM EGCG + virus, 1 minute, dilution factor 10^7, third experiment): − and +
CPE test (virus replication in cell wells) ([1]; 1 mM EGCG + virus, 1 minute, dilution factor 10^8, second experiment): −
CPE test (virus replication in cell wells) ([1]; 1 mM EGCG + virus, 1 minute, dilution factor 10^8, third experiment): −
CPE test (virus replication in the cell wells) ([1]; 1 mM EGCG + virus, co-incubated 5 minute, dilution factor 10^1, first experiment): +
CPE test (virus replication in the cell wells) ([1]; 1 mM EGCG + virus, co-incubated 5 minute, dilution factor 10^1, second experiment): +
CPE test (virus replication in the cell wells) ([1]; 1 mM EGCG + virus, co-incubated 5 minute, dilution factor 10^2, first experiment): +
CPE test (virus replication in the cell wells) ([1]; 1 mM EGCG + virus, co-incubated 5 minute, dilution factor 10^2, second experiment): +
CPE test (virus replication in the cell wells) ([1]; 1 mM EGCG + virus, co-incubated 5 minute, dilution factor 10^3, first experiment): +
CPE test (virus replication in the cell wells) ([1]; 1 mM EGCG + virus, co-incubated 5 minute, dilution factor 10^3, second experiment): +
CPE test (virus replication in the cell wells) ([1]; 1 mM EGCG + virus, co-incubated 5 minute, dilution factor 10^4, first experiment): +
CPE test (virus replication in the cell wells) ([1]; 1 mM EGCG + virus, co-incubated 5 minute, dilution factor 10^4, second experiment): +
CPE test (virus replication in the cell wells) ([1]; 1 mM EGCG + virus, co-incubated 5 minute, dilution factor 10^5, first experiment): +
CPE test (virus replication in the cell wells) ([1]; 1 mM EGCG + virus, co-incubated 5 minute, dilution factor 10^5, second experiment): +
CPE test (virus replication in the cell wells) ([1]; 1 mM EGCG + virus, co-incubated 5 minute, dilution factor 10^6, first experiment): + and −
CPE test (virus replication in the cell wells) ([1]; 1 mM EGCG + virus, co-incubated 5 minute, dilution factor 10^6, second experiment): + and −
CPE test (virus replication in the cell wells) ([1]; 1 mM EGCG + virus, co-incubated 5 minute, dilution factor 10^7, first experiment): −
CPE test (virus replication in the cell wells) ([1]; 1 mM EGCG + virus, co-incubated 5 minute, dilution factor 10^7, second experiment): −
CPE test (virus replication in the cell wells) ([1]; 1 mM EGCG + virus, co-incubated 5 minute, dilution factor 10^8, first experiment): −
CPE test (virus replication in the cell wells) ([1]; 1 mM EGCG + virus, co-incubated 5 minute, dilution factor 10^8, second experiment): −
average inactivation efficiency against virus ([1]; 1 mM EGCG, 1 minute): 41.23%
average inactivation efficiency against virus ([1]; 1 mM EGCG, 5 minutes): 35.78%
CPE test per cell well ([1]; 5 mM EGCG + EV-D68 virus, 1 minute, dilution factor 10^2, wells 1-10): +
CPE test per cell well ([1]; 5 mM EGCG + EV-D68 virus, 1 minute, dilution factor 10^3, wells 1-10): +
CPE test per cell well ([1]; 5 mM EGCG + EV-D68 virus, 1 minute, dilution factor 10^4, wells 1-10): +
CPE test per cell well ([1]; 5 mM EGCG + EV-D68 virus, 1 minute, dilution factor 10^5, wells 1-10): +
CPE test per cell well ([1]; 5 mM EGCG + EV-D68 virus, 1 minute, dilution factor 10^6, wells 1-10): − and +
CPE test per cell well ([1]; 5 mM EGCG + EV-D68 virus, 1 minute, dilution factor 10^7, wells 1-10): − and +
CPE test per cell well ([1]; 5 mM EGCG + EV-D68 virus, 1 minute, dilution factor 10^8, wells 1-10): −
CPE test (virus replication in cell wells) ([1]; 5 mM EGCG + EV-D68 virus, co-incubated 5 minute, third experiment, dilution factor 10^2): +
CPE test (virus replication in cell wells) ([1]; 5 mM EGCG + EV-D68 virus, co-incubated 5 minute, third experiment, dilution factor 10^3): +
CPE test (virus replication in cell wells) ([1]; 5 mM EGCG + EV-D68 virus, co-incubated 5 minute, third experiment, dilution factor 10^4): +
CPE test (virus replication in cell wells) ([1]; 5 mM EGCG + EV-D68 virus, co-incubated 5 minute, third experiment, dilution factor 10^5): +
CPE test (virus replication in cell wells) ([1]; 5 mM EGCG + EV-D68 virus, co-incubated 5 minute, third experiment, dilution factor 10^6): − and +
CPE test (virus replication in cell wells) ([1]; 5 mM EGCG + EV-D68 virus, co-incubated 5 minute, third experiment, dilution factor 10^7): −
CPE test (virus replication in cell wells) ([1]; 5 mM EGCG + EV-D68 virus, co-incubated 5 minute, third experiment, dilution factor 10^8): −
CPE test (virus replication in cell wells) ([1]; 5 mM EGCG + virus, 1 minute, dilution factor 10^1, third experiment): +
CPE test (virus replication in cell wells) ([1]; 5 mM EGCG + virus, 1 minute, dilution factor 10^2, second experiment): +
CPE test (virus replication in cell wells) ([1]; 5 mM EGCG + virus, 1 minute, dilution factor 10^2, third experiment): +
CPE test (virus replication in cell wells) ([1]; 5 mM EGCG + virus, 1 minute, dilution factor 10^3, second experiment): +
CPE test (virus replication in cell wells) ([1]; 5 mM EGCG + virus, 1 minute, dilution factor 10^3, third experiment): +
CPE test (virus replication in cell wells) ([1]; 5 mM EGCG + virus, 1 minute, dilution factor 10^4, second experiment): +
CPE test (virus replication in cell wells) ([1]; 5 mM EGCG + virus, 1 minute, dilution factor 10^4, third experiment): +
CPE test (virus replication in cell wells) ([1]; 5 mM EGCG + virus, 1 minute, dilution factor 10^5, second experiment): +
CPE test (virus replication in cell wells) ([1]; 5 mM EGCG + virus, 1 minute, dilution factor 10^5, third experiment): +
CPE test (virus replication in cell wells) ([1]; 5 mM EGCG + virus, 1 minute, dilution factor 10^6, second experiment): + and −
CPE test (virus replication in cell wells) ([1]; 5 mM EGCG + virus, 1 minute, dilution factor 10^6, third experiment): + and −
CPE test (virus replication in cell wells) ([1]; 5 mM EGCG + virus, 1 minute, dilution factor 10^7, second experiment): −
CPE test (virus replication in cell wells) ([1]; 5 mM EGCG + virus, 1 minute, dilution factor 10^7, third experiment): − and +
CPE test (virus replication in cell wells) ([1]; 5 mM EGCG + virus, 1 minute, dilution factor 10^8, second experiment): −
CPE test (virus replication in cell wells) ([1]; 5 mM EGCG + virus, 1 minute, dilution factor 10^8, third experiment): −
CPE test (virus replication in the cell wells) ([1]; 5 mM EGCG + virus, co-incubated 5 minute, dilution factor 10^2, first experiment): +
CPE test (virus replication in the cell wells) ([1]; 5 mM EGCG + virus, co-incubated 5 minute, dilution factor 10^2, second experiment): +
CPE test (virus replication in the cell wells) ([1]; 5 mM EGCG + virus, co-incubated 5 minute, dilution factor 10^3, first experiment): +
CPE test (virus replication in the cell wells) ([1]; 5 mM EGCG + virus, co-incubated 5 minute, dilution factor 10^3, second experiment): +
CPE test (virus replication in the cell wells) ([1]; 5 mM EGCG + virus, co-incubated 5 minute, dilution factor 10^4, first experiment): +
CPE test (virus replication in the cell wells) ([1]; 5 mM EGCG + virus, co-incubated 5 minute, dilution factor 10^4, second experiment): +
CPE test (virus replication in the cell wells) ([1]; 5 mM EGCG + virus, co-incubated 5 minute, dilution factor 10^5, first experiment): +
CPE test (virus replication in the cell wells) ([1]; 5 mM EGCG + virus, co-incubated 5 minute, dilution factor 10^5, second experiment): +
CPE test (virus replication in the cell wells) ([1]; 5 mM EGCG + virus, co-incubated 5 minute, dilution factor 10^6, first experiment): − and +
CPE test (virus replication in the cell wells) ([1]; 5 mM EGCG + virus, co-incubated 5 minute, dilution factor 10^6, second experiment): + and −
CPE test (virus replication in the cell wells) ([1]; 5 mM EGCG + virus, co-incubated 5 minute, dilution factor 10^7, first experiment): −
CPE test (virus replication in the cell wells) ([1]; 5 mM EGCG + virus, co-incubated 5 minute, dilution factor 10^7, second experiment): −
CPE test (virus replication in the cell wells) ([1]; 5 mM EGCG + virus, co-incubated 5 minute, dilution factor 10^8, first experiment): −
CPE test (virus replication in the cell wells) ([1]; 5 mM EGCG + virus, co-incubated 5 minute, dilution factor 10^8, second experiment): −
inactivation efficiency against the virus ([1]; 5 mM EGCG, 1 minute): 80.05%
average inactivation efficiency against virus ([1]; 5 mM EGCG, 1 minute): 66.10%
inactivation efficiency against the virus ([1]; 5 mM EGCG, 5 minutes): 74.88%
average inactivation efficiency against virus ([1]; 5 mM EGCG, 5 minutes): 66.55%
nucleic acid loads of SARS-CoV-2 Omicron BA.2 in lungs and turbinates (SARS-CoV-2 Omicron BA.2): significantly reduced
